# Data as given in ChEMBL document CHEMBL3286308, “Potent and orally efficacious bisthiazole-based histone deacetylase inhibitors” (ACS Med Chem Lett, 2014).
# Molecular target: Histone deacetylase 1 (Homo sapiens, UniProt Q13547)
# Sequence (Q13547 whole entry): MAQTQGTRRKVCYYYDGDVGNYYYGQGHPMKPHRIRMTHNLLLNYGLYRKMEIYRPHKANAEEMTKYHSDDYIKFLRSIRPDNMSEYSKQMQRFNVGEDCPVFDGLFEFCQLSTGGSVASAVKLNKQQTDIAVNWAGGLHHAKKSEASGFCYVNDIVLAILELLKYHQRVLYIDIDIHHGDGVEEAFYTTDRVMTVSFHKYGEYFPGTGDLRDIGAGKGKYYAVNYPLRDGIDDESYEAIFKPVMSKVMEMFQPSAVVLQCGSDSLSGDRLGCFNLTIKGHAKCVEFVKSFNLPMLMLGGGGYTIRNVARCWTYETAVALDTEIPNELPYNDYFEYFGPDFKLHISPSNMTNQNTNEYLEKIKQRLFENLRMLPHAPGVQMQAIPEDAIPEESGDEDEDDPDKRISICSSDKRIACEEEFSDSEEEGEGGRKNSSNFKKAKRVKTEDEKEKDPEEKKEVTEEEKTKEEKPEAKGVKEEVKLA
row,IC50,SMILES
1,2 µM,CCCCCCCC(=O)SCC/C=C/[C@@H]1CC(=O)NCc2nc(cs2)-c2nc(cs2)C(=O)N[C@@H](C(C)C)C(=O)O1
2,16.8 µM,CC(C)[C@H](NC(=O)[C@]1(C)CSC(c2cscn2)=N1)C(=O)OC/C=C/CCS
3,13.9 µM,Cc1nc(C2=N[C@](C)(C(=O)N[C@H](C(=O)OC/C=C/CCS)C(C)C)CS2)cs1

row,SMILES,IC50
1,CCCCCCCC(=O)SCC/C=C/[C@@H]1CC(=O)NCc2nc(cs2)C2=N[C@@](C)(CS2)C(=O)N[C@@H](C(C)C)C(=O)O1 [LARGAZOLE],0.0137 µM
